Measurements: patent US5610174A, “Use of α1A -selective adrenoceptor agonists for the treatment of urinary incontinence” (priority 1995, dated 1997)
Like-named read-outs stand apart in the source and are kept apart here.

Key:
human α2A adrenoceptor = biological target: T1, human α2A adrenoceptor (Homo sapiens, UniProt P08913); experiment: Radioligand binding ([3H]rauwolscine) at cloned human α2A
T1 construct: expressed in transfected cells; host or cells: LM(tk-)
T1 sequence (P08913 1-465): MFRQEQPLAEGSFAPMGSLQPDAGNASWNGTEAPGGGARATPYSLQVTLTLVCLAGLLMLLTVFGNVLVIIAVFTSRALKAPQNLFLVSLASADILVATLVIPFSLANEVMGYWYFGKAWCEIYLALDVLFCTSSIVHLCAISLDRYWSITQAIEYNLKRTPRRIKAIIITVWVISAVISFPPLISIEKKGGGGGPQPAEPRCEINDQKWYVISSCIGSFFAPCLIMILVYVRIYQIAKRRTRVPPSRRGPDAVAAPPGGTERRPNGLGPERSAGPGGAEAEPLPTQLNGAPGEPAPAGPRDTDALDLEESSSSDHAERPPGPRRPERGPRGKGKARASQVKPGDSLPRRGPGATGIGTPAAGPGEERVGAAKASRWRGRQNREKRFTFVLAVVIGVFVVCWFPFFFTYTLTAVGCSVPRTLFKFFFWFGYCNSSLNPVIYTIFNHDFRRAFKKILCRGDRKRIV
Description: (§1) To determine the affinity of compounds at the α2 receptors, LM(tk-) cell lines stably transfected with the genes encoding the α2A, α2B, and α2C receptors were used. Cell lysates were prepared as described above (see Radioligand Binding Assays), and suspended in 25 mM glycylglycine buffer (pH 7.6 at room temperature). Equilibrium competition binding assays were performed using [^3 H] rauwolscine (0.5 nM), and nonspecific binding was determined by incubation with 10 μM phentolamine. The bound radioligand was separated by filtration through GF/B filters using a cell harvester.

human α2B adrenoceptor = biological target: T2, human α2B adrenoceptor (Homo sapiens, UniProt P18089); experiment: Radioligand binding ([3H]rauwolscine) at cloned human α2B; parameters: expressed in transfected cells
T2 sequence (P18089 1-450): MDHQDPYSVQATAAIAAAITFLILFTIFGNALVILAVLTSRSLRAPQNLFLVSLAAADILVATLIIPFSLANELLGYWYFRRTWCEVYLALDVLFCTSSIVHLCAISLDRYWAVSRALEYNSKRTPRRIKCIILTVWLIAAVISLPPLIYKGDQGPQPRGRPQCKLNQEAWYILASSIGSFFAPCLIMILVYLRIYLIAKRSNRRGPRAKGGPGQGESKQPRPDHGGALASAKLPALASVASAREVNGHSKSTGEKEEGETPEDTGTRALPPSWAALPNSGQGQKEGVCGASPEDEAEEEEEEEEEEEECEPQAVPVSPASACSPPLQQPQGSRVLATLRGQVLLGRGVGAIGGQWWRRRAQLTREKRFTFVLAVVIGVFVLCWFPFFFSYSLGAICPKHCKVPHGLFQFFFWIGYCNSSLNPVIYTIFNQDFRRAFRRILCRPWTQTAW
Description: as §1

[1] = biological target: T3, human dopamine D1 receptor (Homo sapiens, UniProt P21728); experiment: Radioligand binding at human dopamine D1; details: for Ki: read-out: pKi D1 (converted)
T3 construct: expressed in transfected cells
T3 sequence (P21728 whole entry): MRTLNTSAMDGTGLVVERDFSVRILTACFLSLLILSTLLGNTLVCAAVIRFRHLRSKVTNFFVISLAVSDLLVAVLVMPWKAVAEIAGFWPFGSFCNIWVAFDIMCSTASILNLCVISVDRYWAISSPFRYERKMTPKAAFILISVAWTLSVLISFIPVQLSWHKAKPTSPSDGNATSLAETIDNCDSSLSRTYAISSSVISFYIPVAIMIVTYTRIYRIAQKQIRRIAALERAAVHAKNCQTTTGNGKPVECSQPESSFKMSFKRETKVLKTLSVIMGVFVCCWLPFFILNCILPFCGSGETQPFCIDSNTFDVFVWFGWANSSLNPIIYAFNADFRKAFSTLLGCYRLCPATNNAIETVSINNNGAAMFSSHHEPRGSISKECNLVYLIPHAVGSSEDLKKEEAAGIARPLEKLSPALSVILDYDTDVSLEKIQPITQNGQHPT
Description: (§2) Other Dopamine receptors were prepared by known methods. (D1 : Dearry et al., Nature, 347, 72, (1990), deposited with the European Molecular Biological Laboratory (EMBL) Genbank as X55760; D3 : Sokoloff, P. et al., Nature, 347, 146 (1990), deposited with the European Molecular Biological Laboratory (EMBL) Genbank as X53944; D5 : Sunahara, R. K., et al., Nature, 350, 614 (1991), deposited with EMBL Genbank as X58454-HU HD 5DR).

[2] = biological target: T4, human dopamine D5 receptor (Homo sapiens, UniProt P21918); experiment: Radioligand binding at human dopamine D5
T4 construct: expressed in transfected cells
T4 sequence (P21918 whole entry): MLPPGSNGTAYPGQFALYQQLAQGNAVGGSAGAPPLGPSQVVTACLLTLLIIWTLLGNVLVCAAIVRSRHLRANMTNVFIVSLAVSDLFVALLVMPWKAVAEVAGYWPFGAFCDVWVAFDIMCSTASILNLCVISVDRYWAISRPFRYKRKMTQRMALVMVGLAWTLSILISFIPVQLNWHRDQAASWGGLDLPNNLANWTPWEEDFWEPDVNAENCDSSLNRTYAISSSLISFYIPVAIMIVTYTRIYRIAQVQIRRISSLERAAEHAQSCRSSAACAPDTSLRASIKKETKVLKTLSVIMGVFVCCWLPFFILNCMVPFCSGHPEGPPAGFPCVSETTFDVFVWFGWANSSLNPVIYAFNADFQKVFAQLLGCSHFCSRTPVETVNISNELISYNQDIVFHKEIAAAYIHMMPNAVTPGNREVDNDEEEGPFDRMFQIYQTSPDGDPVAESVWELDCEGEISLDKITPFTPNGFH
Description: as §2

human 5-HT1Dβ receptor = biological target: T5, human 5-HT1Dβ receptor (Homo sapiens, UniProt P28222); experiment: Radioligand binding at human 5-HT1Dβ
T5 construct: expressed in transfected cells; host or cells: LM(tk-) clonal cell line, designated Ltk-11, ATCC CRL 10422 (cell lysates)
T5 sequence (P28222 whole entry): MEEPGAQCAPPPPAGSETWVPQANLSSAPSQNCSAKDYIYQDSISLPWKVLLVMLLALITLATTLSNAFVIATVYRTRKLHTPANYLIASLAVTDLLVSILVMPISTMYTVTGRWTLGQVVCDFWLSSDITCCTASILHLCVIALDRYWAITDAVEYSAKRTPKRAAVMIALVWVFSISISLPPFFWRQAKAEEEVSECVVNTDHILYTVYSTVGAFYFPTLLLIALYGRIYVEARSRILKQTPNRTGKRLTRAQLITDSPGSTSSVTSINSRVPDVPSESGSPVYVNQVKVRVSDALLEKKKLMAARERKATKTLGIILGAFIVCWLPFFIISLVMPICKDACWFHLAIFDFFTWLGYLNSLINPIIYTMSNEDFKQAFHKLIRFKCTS
Description: (§3) Human Serotonin Receptors
(§4) 5-HT1Dα, 5-HT1Dβ, 5-HT1E, 5-HT1F, and 5-HT7 Receptors: The cell lysates of LM(tk-) clonal cell line stably transfected with the genes encoding each of these 5-HT receptor-subtypes were prepared as described above. The cell line for the 5-HT1Dαreceptor, designated as Ltk-8-30-84, was deposited on Apr. […] The cell for the 5-HT1Dβ receptor, designated as Ltk-11, was deposited on Apr. […] The cell line for the 5-HT1E receptor, designated 5-HT1E -7, was deposited on Nov. […] The cell line for the 5-HT1F receptor, designated L-5-HT1F, was deposited on Dec. […] The cell line for the 5-HT7 receptor, designated as L-5-HT-4B, was deposited on Oct. […] These preparations were suspended in 50 mM Tris-HCl buffer (pH 7.4 at 37° C.) containing 10 mM MgCl2, 0.2 mM EDTA, 10 μM pargyline, and 0.1% ascorbate. […] Nonspecific binding was determined in the presence of 10 μM serotonin. The bound radioligand was separated by filtration through GF/B filters using a cell harvester.

human 5-HT1F receptor = biological target: T6, human 5-HT1F receptor (Homo sapiens, UniProt P30939); experiment: Radioligand binding at human 5-HT1F
T6 construct: expressed in transfected cells; host or cells: LM(tk-) clonal cell line, designated L-5-HT1F, ATCC CRL 10957 (cell lysates)
T6 sequence (P30939 1-366): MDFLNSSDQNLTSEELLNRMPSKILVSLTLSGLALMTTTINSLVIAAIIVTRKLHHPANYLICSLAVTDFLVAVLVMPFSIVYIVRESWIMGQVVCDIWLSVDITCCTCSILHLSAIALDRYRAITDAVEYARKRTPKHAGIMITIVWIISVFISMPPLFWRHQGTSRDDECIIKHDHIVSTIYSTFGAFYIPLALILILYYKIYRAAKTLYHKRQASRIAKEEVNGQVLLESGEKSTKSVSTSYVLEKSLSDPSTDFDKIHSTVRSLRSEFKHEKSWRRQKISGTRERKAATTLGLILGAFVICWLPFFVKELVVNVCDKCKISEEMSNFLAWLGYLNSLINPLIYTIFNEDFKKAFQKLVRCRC
Description: as §3, §4

human 5-HT7 receptor = biological target: T7, human 5-HT7 receptor (Homo sapiens, UniProt P34969); experiment: Radioligand binding at human 5-HT7
T7 construct: expressed in transfected cells; host or cells: LM(tk-) clonal cell line, designated L-5-HT-4B, ATCC CRL 11166 (cell lysates)
T7 sequence (P34969 1-445 isoform P34969-2): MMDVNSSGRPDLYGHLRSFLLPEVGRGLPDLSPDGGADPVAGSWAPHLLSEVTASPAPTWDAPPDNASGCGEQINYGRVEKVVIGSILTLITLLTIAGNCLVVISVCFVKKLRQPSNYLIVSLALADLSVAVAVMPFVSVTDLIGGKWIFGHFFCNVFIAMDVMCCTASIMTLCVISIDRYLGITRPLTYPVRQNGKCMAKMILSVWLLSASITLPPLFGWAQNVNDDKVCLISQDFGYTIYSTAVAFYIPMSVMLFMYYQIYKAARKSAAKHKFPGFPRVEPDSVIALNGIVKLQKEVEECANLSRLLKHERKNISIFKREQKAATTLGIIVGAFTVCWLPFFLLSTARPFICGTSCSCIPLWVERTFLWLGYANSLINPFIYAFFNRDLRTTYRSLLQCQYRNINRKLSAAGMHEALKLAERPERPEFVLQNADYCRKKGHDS
Description: as §3, §4

[3] = Table 3, agonists, read-out: pKi α2A (converted)

SMILES: C[C@H](N)[C@H](O)c1ccccc1 [(-)-norephedrine]
- Ki (human α2A adrenoceptor; [3]): 0.501 µM
- Ki (human α2B adrenoceptor): 0.251 µM

SMILES: CNCCc1ccc(O)c(NS(C)(=O)=O)c1 [SK&F 102652]
- pKi D1 [1]: 5.0
- pKi α2A (human α2A adrenoceptor; Table 3, agonists): 6.4
- pKi D5 [2]: 4.8
- pKi 5-HT1Dβ (human 5-HT1Dβ receptor; [3H]serotonin): 5.5
- pKi 5-HT1F (human 5-HT1F receptor; [3H]serotonin): 5.3
- pKi 5-HT7 (human 5-HT7 receptor; [3H]serotonin): 5.3

SMILES: CS(=O)(=O)Nc1c(O)ccc2c1CCCC2C1=NCCN1 (racemic) [Compound A-61603, (±)-N-[5-(4,5-Dihydro-1H-imidazol-2-yl)-2-hydroxy-5,6,7,8-tetra-hydronaphthalen-1-yl]methanesulfonamide]
- Ki [1]: 20 µM
- Ki [2]: 15.8 µM
- Ki (human 5-HT1Dβ receptor; [3H]serotonin, read-out: pKi 5-HT1Dβ (converted)): 6.31 µM
- Ki (human 5-HT1F receptor; [3H]serotonin, read-out: pKi 5-HT1F (converted)): 5.01 µM
- Ki (human 5-HT7 receptor; [3H]serotonin, read-out: pKi 5-HT7 (converted)): 5.01 µM
- Ki (human α2B adrenoceptor; Table 3, agonists, read-out: pKi α2B (converted)): 0.316 µM

SMILES: CN[C@@H](C)[C@H](O)c1ccccc1 [(-)-ephedrine]
- Ki (human α2A adrenoceptor; [3]): 0.794 µM
- Ki (human α2B adrenoceptor): 2.51 µM

SMILES: COc1ccc(SC)c2c1C[C@@H]1[C@@H](C2)OCCN1C (relative stereo) [SDZ NVI-085, (±)-trans-4-Methyl-6-methoxy-9-thiomethoxy-3,4,4a, 5,10,10a-hexahydro-2H-naphtho[2,3-b][1,4]oxazine]
- Ki [1]: 7.94 µM
- Ki (human α2A adrenoceptor): 0.0501 µM
- Ki ([2]; read-out: pKi D5 (converted)): 20 µM
- Ki (human 5-HT1Dβ receptor): 0.02 µM
- Ki (human 5-HT1F receptor): 0.1 µM
- Ki (human 5-HT7 receptor): 0.1 µM
- Ki (human α2B adrenoceptor): 0.0631 µM

SMILES: COc1ccc(OC)c(C(O)CN)c1 (racemic) [ST-1059, (±)-2-Amino-1-(2, 5 dimethoxyphenyl) ethanol]
- Ki (human α2A adrenoceptor; [3]): 2 µM
- Ki (human α2B adrenoceptor): 1.58 µM
